Calls of active or inactive are those of the source. The calls are words filed in the database; no cut-off is given here. A value given as a limit tells only on which side of the number the result lay.

Series [1] relates to NCI-H358. The experiment in a line: Antiproliferative activity against human NCI-H358 cells harboring KRAS p.G12C mutant assessed as inhibition of cell growth incubated for 72 hrs by cell count reagent SF based assay. In kind it is functional. Particulars: NCI-H358, 72 h.
The subject of series [2] is GTPase KRas (Homo sapiens), P01116 [G12C]. The experiment in a line: Inhibition of KRAS G12C mutant in human NCI-H358 cells assessed as reduction in ERK1/2 phosphorylation at T185/Y187 residues at 1 uM incubated for 4 hrs by Western blot analysis. The format is cell-based. On the technique in general: A western blot detects proteins with antibodies after separation by electrophoresis.

Series [3] shares this test system. Kind of series: Inhibition of KRAS G12C mutant in human NCI-H358 cells assessed as reduction in ERK1/2 phosphorylation at T185/Y187 residues at 0.1 uM incubated for 4 hrs by Western blot analysis relative to control. In kind it is cell-based.
Series [4] can be described thus: Metabolic stability in human liver microsomes assessed as clearance at 1 uM incubated for 30 mins by LC-MS/MS analysis. In kind it is ADME, Microsome. The settings on record: read-out: CLH.
Series [5] in a line: Glutathione reactivity in potassium phosphate buffer at pH 7.2 assessed as half life at 1 mM by UHPLC analysis. The format is physicochemical.
Series [6] has as its system MIA PaCa-2. The experiment in a line: Antiproliferative activity against human MIA PaCa-2 cells assessed as inhibition of cell growth incubated for 72 hrs by cell count reagent SF based assay. The settings on record: MIA PaCa-2, 72 h. The format is functional.
Series [7] relates to GTPase KRas (Homo sapiens), P01116 [G12C]. Kind of series: Covalent binding affinity to recombinant human KRAS G12C mutant (1 to 169 residues) expressed in Escherichia coli BL21 (DE3) gold assessed as protein labelling at 1 uM incubated for 2 hrs by In-gel fluorescence analysis.
For series [8] the test system is unchanged. The experiment in a line: Binding affinity to KRAS G12C mutant in human NCI-H358 cells assessed as protein labelling at 1 uM incubated for 1 hrs by In-gel fluorescence analysis. The format is cell-based.
Series [9] in a line: Antiproliferative activity against human gefitinib resistant NCI-H1975 cells harboring EGFR L858R/T790M double mutant assessed as inhibition of cell proliferation incubated for 72 hrs by cell count reagent SF based assay. In kind it is functional.
The target of series [10] is Epidermal growth factor receptor (Homo sapiens) (UniProt P00533). Kind of series: Inhibition of EGFR autophosphorylation at Y1068 residue in human NCI-H1975 cells at 0.01 to 1 uM incubated for 4 hrs by Western blot analysis. In kind it is cell-based. The settings on record: dose 0.01-1 µM.
The target is the same in series [11]. Kind of series: Inhibition of EGFR autophosphorylation in human NCI-H1975 cells assessed as reduction in ERK1/2 phosphorylation at T185/Y187 residue at 0.01 to 1 uM incubated for 4 hrs by Western blot analysis. In kind it is cell-based. The settings on record: dose 0.01-1 µM.
The subject of series [12] is GTPase KRas (Homo sapiens), P01116 [G12C]. The experiment in a line: Inhibition of KRAS G12C mutant in human NCI-H358 cells assessed as reduction in ERK1/2 phosphorylation at T185/Y187 residues at 0.001 to 1 uM incubated for 4 hrs by Western blot analysis. In kind it is cell-based. The settings on record: dose 0.001-1 µM.
The test system is the same in series [13]. The experiment in a line: Inhibition of KRAS G12C mutant in human NCI-H358 cells assessed as reduction in ERK1/2 phosphorylation at T185/Y187 residues at 0.5 uM incubated for 0.5 to 4 hrs by Western blot analysis. The format is cell-based. The settings on record: time 0.5-4 hrs.
For series [14] the test system is unchanged. The experiment in a line: Inhibition of KRAS G12C mutant in human MIA PaCa-2 cells assessed as reduction in ERK1/2 phosphorylation at T185/Y187 residues at 0.001 to 1 uM incubated for 4 hrs by Western blot analysis. The format is cell-based. Particulars: dose 0.001-1 µM.
The test system is the same in series [15]. The experiment in a line: Inhibition of KRAS G12C mutant in human MIA PaCa-2 cells assessed as reduction in ERK1/2 phosphorylation at T185/Y187 residues at 0.5 uM incubated for 0.5 to 4 hrs by Western blot analysis. Particulars: time 0.5-4 hrs. In kind it is cell-based.
Series [16] shares this test system. The experiment in a line: Irreversible inhibition of KRAS G12C mutant in human NCI-H358 cells assessed as reduction in ERK1/2 phosphorylation at T185/Y187 residues at 0.001 to 1 uM incubated for 4 hrs followed by washout and further incubated with fresh medium for 4 hrs by Western blot analysis. In kind it is cell-based. The settings on record: dose 0.001-1 µM.

For series [17] the test system is unchanged. Kind of series: Covalent inhibition of KRAS G12C mutant in human NCI-H358 cells assessed as reduction in protein labelling by probe at 1 uM preincubated for 3 hrs and further incubated with 2-((S)-4-(7-(8-chloronaphthalen-1-yl)-2-(((S)-1-(pent-4-yn-1-yl)pyrrolidin-2-yl)methoxy)-5,6,7,8-tetrahydropyrido[3,4-d]pyrimi …. The format is cell-based. Particulars: time 4.0 hrs.

For series [18] the test system is unchanged. The experiment in a line: Inhibition of KRAS G12C mutant in human NCI-H358 cells assessed as reduction in ERK1/2 phosphorylation at T185/Y187 residues upto 10 uM incubated for 4 hrs by Western blot analysis. The format is cell-based.

For the compound `CN1CCC[C@H]1COc1nc2c(c(N3CCN(C(=O)C(F)Cl)[C@@H](CC#N)C3)n1)CCN(c1cccc3cccc(Cl)c13)C2` (some centres undefined), the IC50 (in general, the midpoint of a concentration-inhibition curve) in series [1] is 16.7 nM.
Regarding `CN1CCC[C@H]1COc1nc2c(c(N3CCN(C(=O)C(Cl)Cl)[C@@H](CC#N)C3)n1)CCN(c1cccc3cccc(Cl)c13)C2`, the IC50 in series [1] worked out at 26.1 nM. Also, the inhibition (as a rule, the change of the read-out against control, counted positive when it falls) in series [2] was “Active”. The inhibition in series [3] was found to be 100%. Further, the microsomal CLint at 1 µM in series [4] amounted to 226 µL/min/mg.
Consider `C#CCOCCOCCOc1cccc(N2CCN(C(=O)C(F)F)CC2)c1`, for which, in [5], the half-life (in general, the time in which the quantity being followed falls by half) at 1000 µM was determined as 129 h.
The same measure, in the same setting: as for `C#CCOCCOCCOc1cccc(N2CCN(C(=O)C(F)(F)Br)CC2)c1`, the figure is 33.4 h.
`CN1CCC[C@H]1COc1nc2c(c(N3CCN(C(=O)[C@H](F)Cl)[C@@H](CC#N)C3)n1)CCN(c1cccc3cccc(Cl)c13)C2`: the 50% inhibitory concentration (IC50) in [1] is 162 nM.
As to `CN1CCC[C@H]1COc1nc2c(c(N3CCN(C(=O)C(F)Cl)CC3)n1)CCN(c1cccc3cccc(Cl)c13)C2` (some centres undefined), in [1], the concentration for half-maximal inhibition (IC50) was found to be 4800 nM.
Turning to `C=C(F)C(=O)N1CCN(c2nc(OC[C@@H]3CCCN3C)nc3c2CCN(c2cccc4cccc(Cl)c24)C3)C[C@@H]1CC#N` [ADAGRASIB], the values for the IC50 in [1] and in series [6] were 9.2 nM and 3.92 nM, respectively. In series [4], the microsomal CLint at 1 µM turned out to be 215 µL/min/mg.
Regarding `CN1CCC[C@H]1COc1nc2c(c(N3CCN(C(=O)[C@@H](F)Cl)[C@@H](CC#N)C3)n1)CCN(c1cccc3cccc(Cl)c13)C2`, the 50% inhibitory concentration (IC50) in series [1] came out at 12.3 nM. Moreover, the inhibition entry in series [2] is “Active”. For the same compound, the inhibition in [3] was found to be 100%. Besides, the microsomal CLint at 1 µM in [4] is 272 µL/min/mg.
Turning to `C#CCCCN1CCC[C@H]1COc1nc2c(c(N3CCN(C(=O)[C@@H](F)Cl)[C@@H](CC#N)C3)n1)CCN(c1cccc3cccc(Cl)c13)C2`, the concentration for half-maximal inhibition (IC50) in [1] came to 365 nM. The result in series [7] was Active.
With `C#CCCCN1CCC[C@H]1COc1nc2c(c(N3CCN(C(=O)C(=C)F)[C@@H](CC#N)C3)n1)CCN(c1cccc3cccc(Cl)c13)C2`, the result in series [8] was Active.
As to `CN1CCC[C@H]1COc1nc2c(c(N3CCN(C(=O)CCl)[C@@H](CC#N)C3)n1)CCN(c1cccc3cccc(Cl)c13)C2`, the IC50 in series [1] is 1390 nM.
`O=C(Nc1cc2c(Nc3ccc(F)c(Cl)c3)ncnc2cc1OCCCN1CCOCC1)[C@H]1CCCN1C(=O)C(F)Cl` (some centres undefined): the concentration for half-maximal inhibition (IC50) in [9] was determined as 280 nM.
In the case of `O=C(Nc1cc2c(Nc3ccc(F)c(Cl)c3)ncnc2cc1OCCCN1CCOCC1)[C@H]1CCCN1C(=O)C(Cl)Cl`, the 50% inhibitory concentration (IC50) in [9] amounted to 490 nM. In addition, the inhibition entry in series [10] and in series [11] was “Active” in each case.
In the case of `C#CCCCN1CCC[C@H]1COc1nc2c(c(N3CCN(C(=O)C(Cl)Cl)[C@@H](CC#N)C3)n1)CCN(c1cccc3ccc(F)c(Cl)c13)C2`, the 50% inhibitory concentration (IC50) in series [1] is 69.7 nM. The result in [7] was Active.
On to `C#CCOCCOCCOc1cccc(N2CCN(C(=O)CF)CC2)c1`, for which, in series [5], the half-life at 1000 µM was > 167 h.
In the case of `C#CCOCCOCCOc1cccc(N2CCN(C(=O)C(C)(F)Br)CC2)c1` (centres undefined), in series [5], the half-life at 1000 µM was > 167 h.
Regarding `CN1CCC[C@H]1COc1nc2c(c(N3CCN(C(=O)C(Cl)Cl)[C@@H](CC#N)C3)n1)CCN(c1cccc3ccc(F)c(Cl)c13)C2`, the IC50 was 10 nM in series [1] and 5.68 nM in [6]. For the same compound, the inhibition result in series [12], in series [13], in series [14], in series [15], in series [16] and in series [17] was “Active” in each case. Besides, in series [4], the microsomal CLint at 1 µM came out at 110 µL/min/mg.
Regarding `CC(=O)N1CCN(c2nc(OC[C@@H]3CCCN3C)nc3c2CCN(c2cccc4cccc(Cl)c24)C3)C[C@@H]1CC#N` (racemic), the 50% inhibitory concentration (IC50) in series [1] was > 10000 nM. For the same compound, in [18], the inhibition result is “inactive”.

Source of the values: ChEMBL document CHEMBL5331132, “Expanding the Chemistry of Dihaloacetamides as Tunable Electrophiles for Reversible Covalent Targeting of Cysteines” (J Med Chem, 2023).
